Source: PMC9447987, “Long-term memory CD8^+ T cells specific for SARS-CoV-2 in individuals who received the BNT162b2 mRNA vaccine” (Nature Communications, 2022)
Read-outs that look alike come from different tables or passages of the source.

What was measured:
[1] = tested on: HLA-A*24:02-restricted CD8+ T cells; format: cell-based, human
HLA-A*24:02 = HLA-A*24:02 (Homo sapiens, UniProt P04439, D101N/D140Y/D185E/E176V/E190D/F33S/G103R/G107R/I119L/I121M/I306V/K335N/L105A/L180Q/L300P/N151K/N90K/Q86E/Q94H/R106L/R138H/R89G/T104I/T345S/V100E/W191G/Y123F); assay: HLA stabilization assay using RMA-S-A2402 cells; format: binding; details: RMA-S-A2402 cells, Suppl. Fig. 3b (for Fig. 4a, 4b); peptide(-) 14.8, 26 °C (Maximum) 32.7
[2] = convalescent donor C2, 45.290 weeks since PCR-confirmed diagnosis, […], peptide-pulsed C1R-A2402
[3] = convalescent donor C3, 2.430 weeks since PCR-confirmed diagnosis, […], peptide-pulsed C1R-A2402
[4] = convalescent donor C4, 35.000 weeks since PCR-confirmed diagnosis, […], peptide-pulsed C1R-A2402
[5] = convalescent donor C5, 41.430 weeks since PCR-confirmed diagnosis, […], peptide-pulsed C1R-A2402
[6] = convalescent donor C6, 20.000 weeks since PCR-confirmed diagnosis, […], peptide-pulsed C1R-A2402
[7] = convalescent donor C7, 21.710 weeks since PCR-confirmed diagnosis, […], peptide-pulsed C1R-A2402
[8] = convalescent donor C8, 47.860 weeks since PCR-confirmed diagnosis, […], peptide-pulsed C1R-A2402
[9] = convalescent donor C9, 21.860 weeks since PCR-confirmed diagnosis, […], peptide-pulsed C1R-A2402
[10] = convalescent donor C10, 24.570 weeks since PCR-confirmed diagnosis, […], peptide-pulsed C1R-A2402
[11] = convalescent donor C11, 24.290 weeks since PCR-confirmed diagnosis, […], peptide-pulsed C1R-A2402
[12] = vaccinated donor V1, 19.000 weeks since 2nd dose, […], C1R-A2402 pre-pulsed with 1 μM peptide
[13] = vaccinated donor V2, 9.570 weeks since 2nd dose, […], C1R-A2402 pre-pulsed with 1 μM peptide
[14] = vaccinated donor V3, 8.860 weeks since 2nd dose, […], C1R-A2402 pre-pulsed with 1 μM peptide
[15] = vaccinated donor V4, 10.430 weeks since 2nd dose, […], C1R-A2402 pre-pulsed with 1 μM peptide
[16] = vaccinated donor V5, 10.570 weeks since 2nd dose, […], C1R-A2402 pre-pulsed with 1 μM peptide
[17] = vaccinated donor V6, 9.570 weeks since 2nd dose, […], C1R-A2402 pre-pulsed with 1 μM peptide
[18] = vaccinated donor V7, 10.140 weeks since 2nd dose, […], C1R-A2402 pre-pulsed with 1 μM peptide
[19] = vaccinated donor V8, 9.860 weeks since 2nd dose, […], C1R-A2402 pre-pulsed with 1 μM peptide
[20] = vaccinated donor V9, 20.570 weeks since 2nd dose, […], C1R-A2402 pre-pulsed with 1 μM peptide
[21] = vaccinated donor V10, 2.000 weeks since 2nd dose, […], C1R-A2402 pre-pulsed with 1 μM peptide
[22] = vaccinated donor V11, 1.430 weeks since 2nd dose, […], C1R-A2402 pre-pulsed with 1 μM peptide
[23] = vaccinated donor V12, 1.000 weeks since 2nd dose, […], C1R-A2402 pre-pulsed with 1 μM peptide
[24] = vaccinated donor V13, 9.000 weeks since 2nd dose, […], C1R-A2402 pre-pulsed with 1 μM peptide
[25] = vaccinated donor V14, 2.000 weeks since 2nd dose, […], C1R-A2402 pre-pulsed with 1 μM peptide
[26] = vaccinated donor V15, 6.860 weeks since 2nd dose, […], C1R-A2402 pre-pulsed with 1 μM peptide
[27] = vaccinated donor V16, 8.860 weeks since 2nd dose, […], C1R-A2402 pre-pulsed with 1 μM peptide
[28] = vaccinated donor V17, 4.140 weeks since 2nd dose, […], C1R-A2402 pre-pulsed with 1 μM peptide

| Sequence | IFNg-producing cells among CD8 T cells (%) [1, 2] | IFNg-producing cells among CD8 T cells (%) [1, 3] | IFNg-producing cells among CD8 T cells (%) [1, 4] | IFNg-producing cells among CD8 T cells (%) [1, 5] | IFNg-producing cells among CD8 T cells (%) [1, 6] | IFNg-producing cells among CD8 T cells (%) [1, 7] | IFNg-producing cells among CD8 T cells (%) [1, 8] | IFNg-producing cells among CD8 T cells (%) [1, 9] | IFNg-producing cells among CD8 T cells (%) [1, 10] | IFNg-producing cells among CD8 T cells (%) [1, 11] | IFNg-producing cells among CD8 T cells (%) [1, 12] | IFNg-producing cells among CD8 T cells (%) [1, 13] | IFNg-producing cells among CD8 T cells (%) [1, 14] | IFNg-producing cells among CD8 T cells (%) [1, 15] | IFNg-producing cells among CD8 T cells (%) [1, 16] | IFNg-producing cells among CD8 T cells (%) [1, 17] | IFNg-producing cells among CD8 T cells (%) [1, 18] | IFNg-producing cells among CD8 T cells (%) [1, 19] | IFNg-producing cells among CD8 T cells (%) [1, 20] | IFNg-producing cells among CD8 T cells (%) [1, 21] | also measured |
| --- | --- | --- | --- | --- | --- | --- | --- | --- | --- | --- | --- | --- | --- | --- | --- | --- | --- | --- | --- | --- | --- |
| AYSNNSIAI [S-AI9] | 0.000% | 0.037% | 0.000% | 0.000% | 0.000% | 0.180% | 0.160% | 0.510% | 0.000% | 0.000% | 0.918% | 0% | 0% | 0% | 0.54% | 0.014% | 0% | 0% | 0.488% | 0% | IFNg-producing cells among CD8 T cells (%) [1, 22]: 0.134%; IFNg-producing cells among CD8 T cells (%) [1, 23]: 0%; IFNg-producing cells among CD8 T cells (%) [1, 24]: 0.166%; IFNg-producing cells among CD8 T cells (%) [1, 25]: 0%; IFNg-producing cells among CD8 T cells (%) [1, 26]: 0%; IFNg-producing cells among CD8 T cells (%) [1, 27]: 0%; IFNg-producing cells among CD8 T cells (%) [1, 28]: 0%; MFI, HLA-A2402 (APC), representative staining (HLA-A*24:02): 36.2 |
| EYVSQPFLM [S-EM9] | 0.455% | 0.097% | 0.355% | 0.063% | 0.000% | 0.160% | 0.480% | 0.000% | 0.650% | 0.000% | 0.75% | 0.88% | 0.063% | 0% | 0.271% | 0.032% | 0% | 0% | 0% | 0.23% | IFNg-producing cells among CD8 T cells (%) [1, 22]: 0.827%; IFNg-producing cells among CD8 T cells (%) [1, 23]: 0%; IFNg-producing cells among CD8 T cells (%) [1, 24]: 0.062%; IFNg-producing cells among CD8 T cells (%) [1, 25]: 0%; IFNg-producing cells among CD8 T cells (%) [1, 26]: 0%; IFNg-producing cells among CD8 T cells (%) [1, 27]: 0.187%; IFNg-producing cells among CD8 T cells (%) [1, 28]: 0%; MFI, HLA-A2402 (APC), representative staining (HLA-A*24:02): 38.7 |
| GYLQPRTFLL [S-GL10] | 0.450% | 0.140% | 1.440% | 0.000% | 0.260% | 0.000% | 0.120% | 0.130% | 0.000% | 0.000% | 0% | 0% | 0.487% | 0.245% | 0.041% | 0% | 0% | 0.018% | 0.481% | 0.057% | Freq of responder (%) ([1]; of 17 vaccinated HLA-A*24:02+ individuals (Fig. 4b)): 5.9%; Resp: number of responders (individuals with epitope-specific CD8+ T cells) ([1]; of 17 vaccinated HLA-A*24:02+ individuals, […], 1 μM peptide): one; IFNg-producing cells among CD8 T cells (%) [1, 22]: 0.244%; IFNg-producing cells among CD8 T cells (%) [1, 23]: 1.194%; IFNg-producing cells among CD8 T cells (%) [1, 24]: 0%; IFNg-producing cells among CD8 T cells (%) [1, 25]: 0.774%; IFNg-producing cells among CD8 T cells (%) [1, 26]: 0.234%; IFNg-producing cells among CD8 T cells (%) [1, 27]: 0%; IFNg-producing cells among CD8 T cells (%) [1, 28]: 0%; MFI, HLA-A2402 (APC), representative staining (HLA-A*24:02): 15.2 |
| IYQTSNFRV [S-IV9] | 0.000% | 0.090% | 0.000% | 0.000% | 0.340% | 0.260% | 0.060% | 0.000% | 0.160% | 0.000% | 0% | 0.595% | 0.717% | 0% | 0% | 0.265% | 0% | 0% | 0% | 0% | IFNg-producing cells among CD8 T cells (%) [1, 22]: 0.241%; IFNg-producing cells among CD8 T cells (%) [1, 23]: 0%; IFNg-producing cells among CD8 T cells (%) [1, 24]: 0%; IFNg-producing cells among CD8 T cells (%) [1, 25]: 0%; IFNg-producing cells among CD8 T cells (%) [1, 26]: 0.005%; IFNg-producing cells among CD8 T cells (%) [1, 27]: 0.261%; IFNg-producing cells among CD8 T cells (%) [1, 28]: 0%; MFI, HLA-A2402 (APC), representative staining (HLA-A*24:02): 33.2 |
